Active and inactive are the calls of the source.
Tests used:
Fatty acid synthase [1] = target: T1, Fatty acid synthase (Homo sapiens, UniProt P49327); test: FAS thioesterase domain inhibitors, dose response, biochemical, endpoint fluorescence intensity, uHTS hits (AID 624327); type: functional;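 also: fluorescence from hydrolysis of an O-methyl fluorescein acyl ester substrate by the enzyme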
Fatty acid synthase [2] = target: T1, Fatty acid synthase; test: FAS thioesterase domain inhibitors, dose response, biochemical, kinetic fluorescence intensity (AID 624326); type: functional;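 also: rate of fluorescence rise from hydrolysis of a fluorogenic O-methyl fluorescein ester substrate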
P388/ADR = test: cells; type: functional; conditions: Mus musculus
SN12K1 = test: cells; type: functional; conditions: Homo sapiens
P388 = test: cells; type: functional; conditions: Mus musculus
[3] = intracellular Trypanosoma cruzi inhibitors in host cells – cell-based, plate reader, cherry-pick samples, set 3, dose response (AID 651818); type: functional;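 also: compounds incubated with infected cells for about four days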
[4] = target: Dual specificity tyrosine-phosphorylation-regulated kinase 1A (Rattus norvegicus, UniProt Q63470); type: biochemical, Homo sapiens
[5] = NIH-3T3 fibroblast cytotoxicity, dose response, cytotoxicity control, cell-based, fluorescence, Alamar Blue, secondary assay (AID 2327); type: functional;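 also: NIH-3T3 mouse fibroblasts cultured with fluconazole at 8 µg/mL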
BJ [6] = test: cytotoxicity toward BJ-TERT fibroblasts, dose response, cell-based, RAS-independent, luminescence (AID 1933); type: functional; conditions: Homo sapiens
cells [7] = type: functional, cell-based
BJ [8] = test: cells; type: functional, cell-based; conditions: Homo sapiens
[9] = C. albicans growth with fluconazole, confirmation, fluorescence, retest (AID 2467); type: functional, cell-based
cells [10] = type: functional, cell-based; remark: listed apart in the source
BJ [11] = test: cytotoxicity toward BJ-TERT-LT-ST fibroblasts, dose response, cell-based, RAS-independent, luminescence (AID 1935); type: functional; conditions: Homo sapiens;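 also: BJ fibroblasts immortalized with TERT plus LT and ST oncogenes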
[12] = cytotoxicity toward DRD oncogenic fibroblasts, dose response, cell-based, non-viral oncogenic, luminescence (AID 1934); type: functional; conditions: Homo sapiens
[13] = cytotoxicity in HEK-293T cells, dose response, cytotoxicity control for TCR NF-kB inhibitor project, luminescence, T-cell screen hits (AID 489026); type: functional, cell-based;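 also: cells exposed to compound about 14 hours before the viability readout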
Nonstructural protein 1 = Nonstructural protein 1 (Influenza A virus, UniProt Q194T2); type: functional, Influenza A virus (A/California/07/2009(H1N1))
INS1 = test: beta cell apoptosis inhibitors, cytokine rescue, dose response, luminescence, retest (AID 449756); type: functional, cell-based; conditions: Rattus norvegicus;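 also: cell death triggered by IL-1 beta plus TNF-alpha plus IFN-gamma mixture; protective hits raise ATP signal compared with cytokine alone wells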

T1 sequence (P49327 whole entry, the tested form may be a part): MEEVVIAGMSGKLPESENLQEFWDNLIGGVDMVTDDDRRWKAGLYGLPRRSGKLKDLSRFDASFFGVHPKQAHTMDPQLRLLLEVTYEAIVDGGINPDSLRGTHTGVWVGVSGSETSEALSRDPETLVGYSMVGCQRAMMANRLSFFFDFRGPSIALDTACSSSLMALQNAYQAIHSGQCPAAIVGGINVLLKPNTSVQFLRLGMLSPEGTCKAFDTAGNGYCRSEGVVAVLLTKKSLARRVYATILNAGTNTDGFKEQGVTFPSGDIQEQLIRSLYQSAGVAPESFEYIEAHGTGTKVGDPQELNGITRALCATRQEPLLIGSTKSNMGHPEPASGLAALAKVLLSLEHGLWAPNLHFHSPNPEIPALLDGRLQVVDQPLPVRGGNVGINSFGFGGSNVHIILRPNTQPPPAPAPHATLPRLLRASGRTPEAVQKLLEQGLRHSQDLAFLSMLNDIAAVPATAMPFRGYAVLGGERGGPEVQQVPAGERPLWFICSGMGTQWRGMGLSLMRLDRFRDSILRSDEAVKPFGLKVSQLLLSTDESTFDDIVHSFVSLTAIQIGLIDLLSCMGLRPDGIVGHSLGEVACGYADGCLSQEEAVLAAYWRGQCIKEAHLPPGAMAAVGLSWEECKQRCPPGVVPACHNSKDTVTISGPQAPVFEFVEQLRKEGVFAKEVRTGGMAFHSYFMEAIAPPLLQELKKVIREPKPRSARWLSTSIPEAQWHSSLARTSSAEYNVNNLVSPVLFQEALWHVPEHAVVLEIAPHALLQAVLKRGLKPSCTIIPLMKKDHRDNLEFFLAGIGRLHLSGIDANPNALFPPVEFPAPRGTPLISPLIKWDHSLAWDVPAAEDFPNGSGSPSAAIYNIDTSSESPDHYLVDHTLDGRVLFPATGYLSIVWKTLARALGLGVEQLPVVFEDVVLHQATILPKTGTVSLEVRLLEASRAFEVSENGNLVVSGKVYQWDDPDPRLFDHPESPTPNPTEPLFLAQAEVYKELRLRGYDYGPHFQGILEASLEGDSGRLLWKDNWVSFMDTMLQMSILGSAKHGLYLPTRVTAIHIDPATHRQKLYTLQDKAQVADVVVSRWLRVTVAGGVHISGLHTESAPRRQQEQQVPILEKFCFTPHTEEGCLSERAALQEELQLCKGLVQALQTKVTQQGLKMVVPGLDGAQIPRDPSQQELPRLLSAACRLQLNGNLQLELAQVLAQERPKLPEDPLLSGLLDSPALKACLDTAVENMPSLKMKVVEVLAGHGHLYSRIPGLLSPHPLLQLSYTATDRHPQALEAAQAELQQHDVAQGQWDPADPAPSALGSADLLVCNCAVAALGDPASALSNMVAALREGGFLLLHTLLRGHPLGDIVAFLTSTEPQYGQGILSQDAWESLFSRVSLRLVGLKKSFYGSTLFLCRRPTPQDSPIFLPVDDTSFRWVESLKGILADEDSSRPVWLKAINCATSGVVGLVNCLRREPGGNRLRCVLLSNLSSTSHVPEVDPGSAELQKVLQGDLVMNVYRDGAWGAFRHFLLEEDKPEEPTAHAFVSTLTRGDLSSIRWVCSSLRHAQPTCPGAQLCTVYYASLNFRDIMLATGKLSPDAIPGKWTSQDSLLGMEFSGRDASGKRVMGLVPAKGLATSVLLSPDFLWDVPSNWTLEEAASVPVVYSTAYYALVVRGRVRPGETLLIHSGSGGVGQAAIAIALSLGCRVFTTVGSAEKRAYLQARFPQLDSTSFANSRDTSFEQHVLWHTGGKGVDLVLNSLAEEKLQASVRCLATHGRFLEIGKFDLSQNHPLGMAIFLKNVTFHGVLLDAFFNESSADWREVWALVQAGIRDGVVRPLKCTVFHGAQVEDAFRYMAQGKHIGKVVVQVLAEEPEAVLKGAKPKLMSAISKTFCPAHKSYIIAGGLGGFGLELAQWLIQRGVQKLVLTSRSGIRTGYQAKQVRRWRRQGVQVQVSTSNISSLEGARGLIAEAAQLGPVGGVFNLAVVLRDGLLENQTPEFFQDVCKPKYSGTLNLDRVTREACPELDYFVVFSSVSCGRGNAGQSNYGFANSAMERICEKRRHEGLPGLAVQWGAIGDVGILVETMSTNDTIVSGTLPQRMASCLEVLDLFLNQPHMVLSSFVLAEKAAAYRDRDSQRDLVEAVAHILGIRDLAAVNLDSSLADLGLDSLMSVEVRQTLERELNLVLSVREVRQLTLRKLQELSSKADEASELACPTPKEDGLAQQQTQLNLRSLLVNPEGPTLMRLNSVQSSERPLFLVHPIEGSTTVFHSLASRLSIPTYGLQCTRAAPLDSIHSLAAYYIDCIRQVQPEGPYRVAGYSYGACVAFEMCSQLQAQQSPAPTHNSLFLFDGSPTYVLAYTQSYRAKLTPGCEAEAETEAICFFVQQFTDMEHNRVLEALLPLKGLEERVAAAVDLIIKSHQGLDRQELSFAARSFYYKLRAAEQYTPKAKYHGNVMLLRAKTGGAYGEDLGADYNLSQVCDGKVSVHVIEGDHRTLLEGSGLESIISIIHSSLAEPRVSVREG
Nonstructural protein 1, sequence (Q194T2 whole entry): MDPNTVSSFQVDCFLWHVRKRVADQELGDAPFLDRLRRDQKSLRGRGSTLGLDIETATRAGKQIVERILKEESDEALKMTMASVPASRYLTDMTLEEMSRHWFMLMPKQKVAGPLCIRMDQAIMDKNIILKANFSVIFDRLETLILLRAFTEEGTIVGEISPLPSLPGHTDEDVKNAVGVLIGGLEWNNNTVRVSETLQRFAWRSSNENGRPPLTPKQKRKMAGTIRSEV

SMILES | GI50 (P388/ADR) | GI50 (SN12K1) | GI50 (P388) | other results
COc1ccc(CNC(=O)CC2C[C@H](C(=O)N3CCOCC3)[C@@]3(CCC4CCCC4)c4[nH]c5ccccc5c4CCN3C2=O)cc1OC (some centres undefined) | – | – | – | IC50 (Fatty acid synthase [1]): 3.67 µM (active); IC50 (Fatty acid synthase [2]): 4.73 µM (active)
CC1(CO)C(O)CCC2(C)C1C(O)CC1CC3CC12CCC3(O)CO (centres undefined) | 187 µM (inactive) | 209 µM (inactive) | 11.2 µM (inactive) | –
CCOCC(=O)N(C)c1cccc2c3c(n(C)c12)CCCCC3 | > 100 µM (inactive) | > 100 µM (inactive) | > 100 µM (inactive) | –
CC1=CC2=C(C=O)C(=O)[C@](C)(O)[C@@H](O)C2=CO1 | 14.5 µM (inactive) | 30.4 µM (inactive) | 15 µM (inactive) | –
COC1CC(C)C(OC)c2cc(O)cc(c2O)NC(=O)/C(C)=C/C=C\C(C)C(OC(N)=O)/C(C)=C\C(C)C1OC (centres undefined) | 1.55 µM (inactive) | – | 0.0693 µM (active) | –
COc1ccc(S(=O)(=O)Nc2ccc3c(c2)CC(=O)N([C@H](C)CO)C[C@@H](C)[C@@H](CN(C)S(=O)(=O)c2ccc(F)cc2)O3)cc1 | – | – | – | AC50 [3]: 2.24 µM (active)
C[C@H](CO)N1C[C@H](C)[C@@H](CN(C)S(=O)(=O)c2ccc(Cl)cc2)Oc2c(NC(=O)c3nc4ccccc4s3)cccc2C1=O | – | – | – | AC50 [3]: 1.73 µM (active)
Cc1ccc(S(=O)(=O)Nc2ccc3c(c2)CC(=O)N([C@@H](C)CO)C[C@H](C)[C@H](CN(C)Cc2ccc(C(=O)Nc4ccccc4N)cc2)O3)cc1 | – | – | – | AC50 [3]: 2.31 µM (active)
N=C(N)/N=N/c1c(O)[nH]c2ccc(Br)cc12 | – | – | – | AC50 [4]: 5.14 µM (active)
Cc1nnc(N/N=C/c2ccccn2)nc1O | – | – | – | EC50 [5]: 4.26 µM (active); EC50 (BJ [6]): 1.69 µM (active); EC50 (cells [7]): 7.24 µM (active); EC50 (BJ [8]): 4.02 µM (active); EC50 [9]: 2.72 µM (active); EC50 (cells [10]): > 350 µM (not active); EC50 (BJ [11]): 5.42 µM (active); EC50 [12]: 5.38 µM (inconclusive); IC50 [13]: > 80 µM (inactive); IC50 (Nonstructural protein 1): 3.92 µM (active); AC50 (INS1): 1.56 µM (active)
O=C1C=C2SC3C[C@@]24CC1(O)[N+]1=c2c4c(c(O)c4c2=C(C=N4)CC1)N3 | 1.3 µM (inactive) | 1.29 µM (inactive) | 0.869 µM (active) | –
CC[C@@]1(O)C(=O)OCc2c1cc1n(c2=O)Cc2cc3cc(O)ccc3nc2-1 [HYDROXYCAMPTOTHECIN] | 0.0304 µM (active) | 0.01 µM (active) | 0.0203 µM (active) | –

— ChEMBL document CHEMBL1201862, “PubChem BioAssay data set” (2004)
